Data set [1] deals with T1, trypsin (Sus scrofa, UniProt P00761).
T1 construct: purchased Shanghai Aladdin Biochemical Technology Co., Ltd; host or cells: porcine pancreas
Briefly: Simulated intestinal digestion with trypsin. Format: in vitro ADME. Conditions: simulated intestinal fluid (trypsin from porcine pancreas, bile salt), pH 7.6, 2 h, 37 °C, after pepsin step; judged by unchanged cytokine levels. On the procedure: The stability of GBP in response to pepsin and trypsin in the simulation of GI digestion in vitro was examined based on Xie et al.. First, 2 g of NaCl and 3.2 g of pepsin from porcine gastric mucosa (Purity: 1:3000, CAS: 9001-75-6, Shanghai Aladdin Biochemical Technology Co., Ltd., Shanghai, China) were added to 800 mL of ultrapure water. The pH of the solution was adjusted with 6 mol/L hydrochloric acid to 3.0, and the volume was adjusted with ultrapure water to 1 L (as simulated gastric juice). Then, 0.68 g of potassium dihydrogen phosphate and 7.7 mL sodium hydroxide solution (0.2 mol/L) were dissolved in 70 mL of ultrapure water; 1 g of trypsin from porcine pancreas (Purity: ≥250 units/mg, CAS: […], Shanghai Aladdin Biochemical Technology Co., Ltd., Shanghai, China) and 6 g of bile salt were added and dissolved. The above solution was mixed and supplemented with ultrapure water to 1 L. Finally, the pH of the mixed solution was adjusted to 7.6 with sodium hydroxide solution (0.2 mol/L) (as simulated intestinal fluid). The 200 μg/mL peptide solution was adjusted to a pH of 3.0 with a 1 mol/L HCl solution, and 5 mL of simulated gastric juice was added to the solution and the reaction was carried out for 2 h in 37 °C water bath. Then, the simulated gastric digestion was terminated by being heated at 100 °C for 10 min. […]

In data set [2] the target is T2, pepsin (Sus scrofa, UniProt P00791).
T2 construct: purchased Shanghai Aladdin Biochemical Technology Co., Ltd; host or cells: porcine gastric mucosa
T2 sequence (P00791 60-385): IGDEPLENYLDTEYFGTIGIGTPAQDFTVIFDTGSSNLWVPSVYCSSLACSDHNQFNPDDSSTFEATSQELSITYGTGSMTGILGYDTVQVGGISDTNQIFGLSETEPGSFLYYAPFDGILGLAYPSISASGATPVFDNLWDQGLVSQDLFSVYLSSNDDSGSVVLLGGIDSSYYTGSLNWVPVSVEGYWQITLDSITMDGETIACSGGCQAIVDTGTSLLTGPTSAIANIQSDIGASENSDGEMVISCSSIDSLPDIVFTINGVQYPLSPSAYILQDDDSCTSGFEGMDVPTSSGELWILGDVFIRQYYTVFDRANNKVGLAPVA
Description: Simulated gastric digestion with pepsin, products analysed by LC–MS/MS. It counts as in vitro ADME, porcine. Particulars: 37 °C. On the procedure: (§1) The fractionation of the peak with the highest anti-inflammatory activity obtained from RP-LC was further identified by LC-MS/MS equipped with a reversed phase BEH C18 analytical column (1.7 μm, 2.1 × 100 mm, Waters Inc., Milford, MA, USA). The fraction of peptide with the highest anti-inflammatory activity obtained from RP-LC was further Identified by LC-MS/MS. Eluent A: 0.065% TFA in 2% acetonitrile; Eluent B: 0.050% TFA in 80% acetonitrile. The gradient elution parameters: 0–30 min, 100% eluent A; 30–60 min, 30–80% eluent B; 60–80 min, 100% eluent A. The above flow rates were 0.5 mL/min. The fractions were detected at 280 nm by an ultraviolet detector. The flow entered directly into the MS/MS system (MALDI SYNAPT Q-TOF MS, Waters, Inc. Milford, MA, USA) for multiple reaction measurement. The recording mass range of precursor ions was m/z 50–4000. Nitrogen was used as a collision gas. Capillary voltage was set at 3.5 kV and cone voltage at 20 V. Source block temperature was set at 100 °C and desolvation temperature at 250 °C. Collision energy and detector voltage were 15 and 1600 V, respectively. The desolvation and cone gas flow were 500 and 50 L/h, respectively. The N-terminal fragment ion series (B series) and the C-terminal fragment ion series (Y series) were analysed. The amino acid sequence of the peptide was obtained by comprehensive analysis of B and Y ion series through Mass Lynx V4.1 operating system.
(§2) The stability of GBP in response to pepsin and trypsin in the simulation of GI digestion in vitro was examined based on Xie et al.. First, 2 g of NaCl and 3.2 g of pepsin from porcine gastric mucosa (Purity: 1:3000, CAS: 9001-75-6, Shanghai Aladdin Biochemical Technology Co., Ltd., Shanghai, China) were added to 800 mL of ultrapure water. The pH of the solution was adjusted with 6 mol/L hydrochloric acid to 3.0, and the volume was adjusted with ultrapure water to 1 L (as simulated gastric juice). […]

Data set [3] concerns T3, pepsin.
T3 construct: purchased Shanghai Aladdin Biochemical Technology Co., Ltd; host or cells: porcine gastric mucosa
The data set is described as above. It counts as in vitro ADME, porcine. Conditions: pig, simulated gastric fluid; simulated gastric juice (pepsin from porcine gastric mucosa, NaCl), pH 3.0, 200 μg/mL peptide, 2 h, 37 °C; LC–MS/MS; read-out: share of IVYPWTQR split into smaller fragments after pepsin treatment. Here is the method: as §1, §2

Ends that are not written are not given here.

T1 sequence (P00761 9-231): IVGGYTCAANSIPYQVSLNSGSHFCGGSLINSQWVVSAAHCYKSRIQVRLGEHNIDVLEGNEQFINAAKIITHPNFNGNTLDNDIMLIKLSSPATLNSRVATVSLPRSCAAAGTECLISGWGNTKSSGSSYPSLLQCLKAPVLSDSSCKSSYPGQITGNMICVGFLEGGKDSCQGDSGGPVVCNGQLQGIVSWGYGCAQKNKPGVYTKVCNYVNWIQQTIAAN

With “IVYPWTQR [IVYPWTQR, IIe-Val-Tyr-Pro-Trp-Thr-Gln-Arg]”, in data set [1], the stability against trypsin result is reported as “robustly resists trypsin”. In addition, in data set [2] (simulated gastric digestion, pepsin, pH 3.0, 2 h), the stability against pepsin entry is on record as “sensitive to pepsin”. Moreover, the metabolised at 2 h, 200 μg/mL in data set [3] was approximately 45.2%.

For “YPWTQR [fragment of IVYPWTQR after pepsin treatment]”, the “share of fragment formed from IVYPWTQR after pepsin treatment” value in data set [2] (simulated gastric juice (pepsin), pH 3.0, 200 μg/mL peptide, 2 h, LC–MS/MS) is reported as 25.19%.

Source of the values: article PMC9781827, “Isolation and Identification of Anti-Inflammatory Peptide from Goose Blood Hydrolysate to Ameliorate LPS-Mediated Inflammation and Oxidative Stress in RAW264.7 Macrophages” (Molecules, 2022).
